# Assay results published in patent US20220363667A1 (Nippon Chemiphar Co., Ltd., priority 2018, published 2022).
# Entries after “also recorded” stand apart in the source; their conditions may differ.
# Test system: SD rats
# Assay: Rat formalin test
# Assay type: in vivo
# Details: po, 30 mg/kg orally once, pain behavior time from 15 to 30 minutes after formalin administration vs vehicle group, read-out: Inhibition ratio (pain behavior inhibition ratio)
# Experimental: 30 mg/kg of a vehicle or a test substance was orally administrated to SD rats once, and according to the method described in McNamara C. R., Mandel-Brehm J., Bautista D. M., Siemens J., Deranian K. L., Zhao M., Hayward N. J., Chong J. A., Julius D., Moran M. M., Fanger C. M.: TRPA1 mediates formalin-induced pain. Proc. Natl. Acad. Sci. U.S.A. 104, 2007, 13525-13530, 50 μL of a 2.0% formalin solution as a pain-inducing substance was subcutaneously administered under the skin of the plantar plate of the right hind limb of each rat.
# Regarding the evaluation, the pain behavior inhibition ratio was determined from the pain behavior time of each test substance-administered group with respect to the pain behavior time of the vehicle-administered group for 15 minutes measured from 15 minutes to 30 minutes after the administration.
row,SMILES,inhibition in vivo at 30 mg/kg
1,"O=C(N[C@@H]1CCN(c2ccc(F)c(C(F)(F)F)c2)C1)[C@H]1C[C@@H]1c1nc2ccccc2[nH]1 [Example 57, (1S,2S)-2-(1H-benzo[d]imidazol-2-yl)-N—((R)-1-(4-fluoro-3-(trifluoromethyl)phenyl)pyrrolidin-3-yl)cyclopropane-1-carboxyamide]",< 10%
2,"Cn1ncc2cc(CC(=O)N[C@@H]3CCN(c4ccc(C(F)(F)F)nc4)C3)ccc21 [Example 144, (R)-2-(1-methyl-1H-indazol-5-yl)-N-(1-(6-(trifluoromethyl)pyridin-3-yl)pyrrolidin-3-yl)acetamide]",≥ 20%

# Test system: mouse PSNL model
# Assay: Mechanical allodynia in mouse partial sciatic nerve ligation (PSNL) model
# Assay type: in vivo
# Details: 30 mg/kg orally administered, compared with the vehicle group
# Text: The production of a mouse PSNL model was achieved according to the method of Seltzer et al. A mouse was subjected to inhalation anesthesia with isoflurane. The femoral region of the mouse was shaved and disinfected with isodine. The skin on a thighbone of the mouse was incised, the fascia directly under the skin was cut, and the muscle heads of the musculus biceps femoris were split. The sciatic nerve directly under the fascia was checked, and then the sciatic nerve was detached so as not to damage the nerve. The needle of a needle with 8-0 silk thread was passed through the sciatic nerve to penetrate therethrough, and the sciatic nerve was ligated for about ½ to ⅓ of the whole nerve. The skin was sutured, and the mouse was raised for about 7 days. […]
# The measurement of the pain threshold was carried out after transferring the mice into a cage for measurement and waiting for the exploratory behavior to disappear. Regarding the pain threshold (paw withdrawal filament ((g)), the plantar plates of the mice were stimulated with von Frey filaments (Sttoelting Co.: TOUCH-TEST SENSORY EVLUATOR) having different stimulus intensities, and the presence or absence of an escape response was observed. The 50% threshold was calculated by an up-down method with reference to the method of Chaplan et al. (Quantitative assessment of tactile allodynia in the rat paw. J neurosci Methods, 53, 1994, 55-63). […]
row,SMILES,"mechanical allodynia (pain threshold, von Frey filament test)"
1,"Cn1ncc2cc(CC(=O)N[C@@H]3CCN(c4ccc(C(F)(F)F)nc4)C3)ccc21 [Example 144, (R)-2-(1-methyl-1H-indazol-5-yl)-N-(1-(6-(trifluoromethyl)pyridin-3-yl)pyrrolidin-3-yl)acetamide]",inhibited mechanical allodynia statistically significantly; also recorded: suppressed statistically significantly

# Target: T1, human Cav3.2 channels (Homo sapiens, UniProt O95180)
# T1 construct: expressed in transfected cells
# Assay: T-type calcium blocking action: intracellular calcium concentration in cells steadily expressing human Cav3.2 channels
# Assay type: cell-based
# Details: HEK293 cells steadily expressing human Cav3.2 channels; Fluo-4 AM fluorescence increase after KCl stimulus
# Text: (1) Construction of Cells Steadily Expressing Human Cav3.2 Channels
# A sequence obtained by adding HindIII site and a kozak sequence (GCCACC) to the 5′-side of human Cav3.2 channel ORF (Open Reading Frame) gene and adding a KpnI site to the 3′-side of the gene, was incorporated into pcDNA3.1 (+) (Thermo Fisher Scientific, #V790-20), and the plasmid was introduced into HEK293 cells (ATCC No. CRL-1573) according to the protocol of FuGENE (registered trademark) HD Transfection Reagent (Promega, #E2311).
# (2) Method for Measuring Intracellular Calcium Concentration
# The cell strain steadily expressing human Cav3.2 channels as produced by the testing method (1) was seeded on a 96-well plate using DMEM including 10% FBS, and the cells were cultured for 48 hours under the conditions of 37° C. and 5% CO2. Subsequently, the medium was removed, and each of the wells were washed with buffer A and treated with 80 μL of a fluorescent dye solution including a mixed liquid of 22 μg of a fluorescent calcium indicator, Fluo-4 AM (Dojindo Molecular Technologies, Inc., #F311), 20 μL of dimethyl sulfoxide (DMSO), 1 μL of 10% Pluronic F-127 (Thermo Fisher Scientific, #P6866), and 4 mL of buffer A. After the cells were left to stand for 45 minutes at room temperature under light-shielded conditions, and then the cells were washed with buffer B. DMSO as a negative control and various test compound solutions each obtained by dissolving a test compound dissolved in DMSO, in buffer B so as to obtain a 10-fold concentration of the evaluation concentration, were introduced into respective wells. The final concentration of DMSO was adjusted to 0.1%. The cells were left to stand for another 15 minutes at room temperature under light-shielded conditions, and measurement was made using a microplate reader, EnVision (PerkinElmer Inc.) using the following method. First, the background fluorescence of each well was measured, subsequently an ionophore was introduced into each well, and the baseline fluorescence was measured. Subsequently, buffer B having 83.8 mM KCl added thereto was introduced, and an increase in fluorescence caused by calcium influx generated by the stimulus was measured for 10 seconds. The percentage inhibition was calculated from the maximum fluorescence increase value from the baseline, the logarithmic value of the test compound concentration and the inhibitory activity are plotted, and thereby the IC50 value was calculated. The measurement was carried out by observing the fluorescence at 510 nm that was emitted when the cells were irradiated with excitation light at 485 nm.
# Buffer A: 140 mM NaCl, 5 mM KCl, 1 mM MgCl2, 0.5 mM CaCl2, 10 mM Glucose, 10 mM HEPES, pH 7.3
# Buffer B: 137.9 mM Choline-Cl, 4.1 mM KCl, 1 mM MgCl2, 0.5 mM CaCl2, 10 mM Glucose, 10 mM HEPES, pH 7.3, equilibrium potential of potassium: −92 mV
# T1 sequence (O95180 whole entry): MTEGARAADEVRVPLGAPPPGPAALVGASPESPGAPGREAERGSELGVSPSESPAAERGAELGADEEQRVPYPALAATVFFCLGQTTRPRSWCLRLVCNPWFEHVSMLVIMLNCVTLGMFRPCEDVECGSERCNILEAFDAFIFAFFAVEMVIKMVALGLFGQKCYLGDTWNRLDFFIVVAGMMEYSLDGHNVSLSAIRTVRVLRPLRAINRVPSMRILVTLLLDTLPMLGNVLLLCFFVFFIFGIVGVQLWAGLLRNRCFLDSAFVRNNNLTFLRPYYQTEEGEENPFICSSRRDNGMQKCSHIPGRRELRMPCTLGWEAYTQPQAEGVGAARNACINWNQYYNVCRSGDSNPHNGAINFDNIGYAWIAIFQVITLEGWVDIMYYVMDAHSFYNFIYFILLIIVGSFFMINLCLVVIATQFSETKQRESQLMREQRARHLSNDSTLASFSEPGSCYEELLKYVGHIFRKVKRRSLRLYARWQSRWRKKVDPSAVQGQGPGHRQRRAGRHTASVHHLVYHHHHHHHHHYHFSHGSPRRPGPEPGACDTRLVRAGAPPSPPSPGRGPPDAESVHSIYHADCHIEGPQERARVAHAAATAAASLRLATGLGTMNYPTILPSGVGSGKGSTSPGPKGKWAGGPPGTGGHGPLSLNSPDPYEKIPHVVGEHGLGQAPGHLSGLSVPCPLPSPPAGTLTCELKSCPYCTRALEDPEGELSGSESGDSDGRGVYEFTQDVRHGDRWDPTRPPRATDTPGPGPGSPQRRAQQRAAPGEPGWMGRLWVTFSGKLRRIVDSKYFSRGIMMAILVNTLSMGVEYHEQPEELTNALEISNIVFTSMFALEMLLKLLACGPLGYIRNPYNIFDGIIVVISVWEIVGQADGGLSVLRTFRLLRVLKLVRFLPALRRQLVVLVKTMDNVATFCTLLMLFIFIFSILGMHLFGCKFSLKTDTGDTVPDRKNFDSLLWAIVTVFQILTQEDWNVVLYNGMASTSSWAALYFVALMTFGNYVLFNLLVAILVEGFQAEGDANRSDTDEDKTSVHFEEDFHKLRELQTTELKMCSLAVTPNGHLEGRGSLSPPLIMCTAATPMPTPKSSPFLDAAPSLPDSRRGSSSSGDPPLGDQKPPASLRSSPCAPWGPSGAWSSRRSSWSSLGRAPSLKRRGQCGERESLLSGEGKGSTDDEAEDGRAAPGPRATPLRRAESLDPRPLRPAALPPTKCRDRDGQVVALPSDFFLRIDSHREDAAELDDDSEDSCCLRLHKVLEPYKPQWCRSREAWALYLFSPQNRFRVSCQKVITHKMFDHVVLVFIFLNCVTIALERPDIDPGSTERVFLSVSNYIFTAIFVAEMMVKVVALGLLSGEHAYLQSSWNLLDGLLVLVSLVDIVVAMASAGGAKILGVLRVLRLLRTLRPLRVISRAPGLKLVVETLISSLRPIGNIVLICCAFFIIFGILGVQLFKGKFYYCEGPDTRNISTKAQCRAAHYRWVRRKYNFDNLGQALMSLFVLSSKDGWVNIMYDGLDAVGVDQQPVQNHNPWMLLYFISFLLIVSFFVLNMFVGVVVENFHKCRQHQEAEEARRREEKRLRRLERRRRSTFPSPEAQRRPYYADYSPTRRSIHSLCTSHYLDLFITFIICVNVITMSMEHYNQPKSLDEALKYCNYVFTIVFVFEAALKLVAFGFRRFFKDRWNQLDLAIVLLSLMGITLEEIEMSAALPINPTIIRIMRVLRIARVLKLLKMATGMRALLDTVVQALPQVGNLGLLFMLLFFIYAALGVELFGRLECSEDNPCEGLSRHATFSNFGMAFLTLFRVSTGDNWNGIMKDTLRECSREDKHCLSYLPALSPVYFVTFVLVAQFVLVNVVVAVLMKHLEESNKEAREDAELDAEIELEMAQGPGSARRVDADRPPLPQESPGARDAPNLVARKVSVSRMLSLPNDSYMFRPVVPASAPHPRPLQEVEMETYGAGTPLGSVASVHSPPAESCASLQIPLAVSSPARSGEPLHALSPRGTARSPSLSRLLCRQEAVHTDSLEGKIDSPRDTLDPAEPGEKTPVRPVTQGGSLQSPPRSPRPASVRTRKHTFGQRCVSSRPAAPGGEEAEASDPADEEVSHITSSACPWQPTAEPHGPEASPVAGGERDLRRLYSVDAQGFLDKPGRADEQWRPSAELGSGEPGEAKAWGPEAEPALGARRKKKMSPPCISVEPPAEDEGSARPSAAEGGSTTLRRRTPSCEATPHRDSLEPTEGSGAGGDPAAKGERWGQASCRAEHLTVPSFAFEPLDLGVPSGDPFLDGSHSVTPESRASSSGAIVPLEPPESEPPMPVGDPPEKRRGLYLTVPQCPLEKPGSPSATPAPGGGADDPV
row,SMILES,IC50
1,"N#Cc1ccc2[nH]c(C3CC3C(=O)N[C@@H]3CCN(c4ccc(C(F)(F)F)nc4)C3)nc2c1 (single isomer, unassigned) [Example 61A]",1100 nM
2,"O=C(Cc1ccc(C2CC2)cc1)N[C@@H]1CCN(c2cc(C(F)(F)F)c3nccn3c2)C1 [Example 20, (R)-2-(4-cyclopropylphenyl)-N-(1-(8-(trifluoromethyl)imidazo[1,2-a]pyridin-6-yl)pyrrolidin-3-yl)acetamide]",> 10000 nM
3,O=C(N[C@@H]1CCN(c2cncc(C(F)(F)F)c2)C1)[C@H]1C[C@@H]1c1nc2cc(F)c(F)cc2o1 [Example 45],11 nM
4,"O=C(N[C@@H]1CCN(c2ncc(C(F)(F)F)cn2)C1)[C@H]1C[C@@H]1c1nc2ccccc2[nH]1 [Example 56, (1S,2S)-2-(1H-benzo[d]imidazol-2-yl)-N—((R)-1-(5-(trifluoromethyl)pyrimidin-2-yl)pyrrolidin-3-yl)cyclopropane-1-carboxyamide]",290 nM
5,"O=C(N[C@@H]1CCN(c2ccc(F)c(C(F)(F)F)c2)C1)[C@H]1C[C@@H]1c1ncc2ccccc2n1 [Example 58, (1S,2S)—N—((R)-1-(4-fluoro-3-(trifluoromethyl)phenyl)pyrrolidin-3-yl)-2-(quinazolin-2-yl)cyclopropane-1-carboxyamide]",4400 nM
6,"COc1ncc(N2CC[C@@H](NC(=O)[C@H]3C[C@@H]3c3nc4ccccc4[nH]3)C2)cc1C(F)(F)F [Example 67, (1S,2S)-2-(1H-benzo[d]imidazol-2-yl)-N—((R)-1-(6-methoxy-5-(trifluoromethyl)pyridin-3-yl)pyrrolidin-3-yl) cyclopropane-1-carboxyamide]",29 nM
7,"O=C(N[C@@H]1CCN(c2ccc(C(F)(F)F)nn2)C1)[C@H]1C[C@@H]1c1nc2ccccc2[nH]1 [Example 69, (1S,2S)-2-(1H-benzo[d]imidazol-2-yl)-N—((R)-1-(6-(trifluoromethyl)pyridazin-3-yl)pyrrolidin-3-yl)cyclopropane-1-carboxyamide]",1200 nM
8,"O=C(Cc1ccc(C2CC2)cc1)N[C@@H]1CCN(c2ccc(OCC(F)(F)F)nc2)C1 [Example 125, (R)-2-(4-cyclopropylphenyl)-N-(1-(6-(2,2,2-trifluoroethoxy)pyridin-3-yl)pyrrolidin-3-yl)acetamide]",> 10000 nM
9,"COc1ncc(C(F)(F)F)cc1N1CC[C@@H](NC(=O)Cc2ccc(C3CC3)cc2)C1 [Example 128, (R)-2-(4-cyclopropylphenyl)-N-(1-(2-methoxy-5-(trifluoromethyl)pyridin-3-yl)pyrrolidin-3-yl)acetamide]",> 10000 nM
10,"O=C(Cc1ccc(C2CC2)cc1)N[C@@H]1CCCN(c2ccc(C(F)(F)F)nc2)C1 [Example 130, (R)-2-(4-cyclopropylphenyl)-N-(1-(6-(trifluoromethyl)pyridin-3-yl)piperidin-3-yl)acetamide]",> 10000 nM
11,"NC(C(=O)N[C@@H]1CCN(c2cncc(C(F)(F)F)c2)C1)c1ccc(C2CC2)cc1 (stereo partly drawn) [Example 137B, 2-amino-2-(4-cyclopropylphenyl)-N((R)-1-(5-(trifluoromethyl)pyridin-3-yl)pyrrolidin-3-yl)acetamide]",820 nM
12,"O=C(Cc1ccc(C2CC2)cc1)NC1CN(c2ccc(C(F)(F)F)cc2)C1 [Example 169, 2-(4-Cyclopropylphenyl)-N-(1-(4-(trifluoromethyl)phenyl)azetidin-3-yl)acetamide]",> 10000 nM
13,"O=C(N[C@@H]1CCCN(c2cncc(C(F)(F)F)c2)C1)[C@H]1C[C@@H]1c1nc2ccccc2[nH]1 [Example 186, (1S,23)-2-(1H-benzo[d]imidazol-2-yl)-N—((R)-1-(5-(trifluoromethyl)pyridin-3-yl)piperidin-3-yl)cyclopropane-1-carboxyamide]",190 nM

# Further lines, results first:
row,IC50,SMILES
1,2200 nM,"N#Cc1ccc2[nH]c(C3CC3C(=O)N[C@@H]3CCN(c4ccc(C(F)(F)F)nc4)C3)nc2c1 (single isomer, unassigned) [Example 61B]"
2,470 nM,"O=C(N[C@H]1CCN(c2ccc(C(F)(F)F)nc2)C1)[C@H]1C[C@@H]1c1nc2ccccc2[nH]1 [Example 55, (1S,25)-2-(1H-benzo[d]imidazol-2-yl)-N—((S)-1-(6-(trifluoromethyl)pyridin-3-yl)pyrrolidin-3-yl)cyclopropane-1-carboxyamide]"
3,20 nM,"O=C(N[C@@H]1CCN(c2ccc(F)c(C(F)(F)F)c2)C1)[C@H]1C[C@@H]1c1nc2ccccc2[nH]1 [Example 57, (1S,2S)-2-(1H-benzo[d]imidazol-2-yl)-N—((R)-1-(4-fluoro-3-(trifluoromethyl)phenyl)pyrrolidin-3-yl)cyclopropane-1-carboxyamide]"
4,1800 nM,"CS(=O)(=O)c1cccc(N2CC[C@@H](NC(=O)[C@H]3C[C@@H]3c3nc4ccccc4[nH]3)C2)c1 [Example 59, (1S,2S)-2-(1H-benzo[d]imidazol-2-yl)-N—((R)-1-(3-(methylsulfonyl)phenyl)pyrrolidin-3-yl)cyclopropane-1-carboxyamide]"
5,470 nM,"N#Cc1cccc(N2CC[C@@H](NC(=O)[C@H]3C[C@@H]3c3nc4ccccc4[nH]3)C2)c1 [Example 60, (1S,2S)-2-(1H-benzo[d]imidazol-2-yl)-N—((R)-1-(3-cyanophenyl)pyrrolidin-3-yl)cyclopropane-1-carboxyamide]"
6,410 nM,"O=C(N[C@@H]1CCN(c2ccnc(C(F)(F)F)c2)C1)[C@H]1C[C@@H]1c1nc2ccccc2[nH]1 [Example 62, (1S,2S)-2-(1H-benzo[d]imidazol-2-yl)-N—((R)-1-(2-(trifluoromethyl)pyridin-4-yl)pyrrolidin-3-yl)cyclopropane-1-carboxyamide]"
